Assay results from ChEMBL document CHEMBL5620385, “Orally bioavailable styryl derivative of rohitukine-N-oxide inhibits CDK9/T1 and the growth of pancreatic cancer cells” (Eur J Med Chem, 2023).

Assays:
CDK9/Cyclin K = CDK9/Cyclin K (Homo sapiens, UniProt P50750); assay: Inhibition of CDK9/cyclin K (unknown origin) by ADP-Glo assay; format: protein-complex assay
[1] = Antiproliferative activity against HEK293 cells assessed as cell growth inhibition incubated for 48 hrs by MTT assay; format: toxicity, cell-based; conditions: human
[2] = Antiproliferative activity against HEK293 cells assessed as cell growth inhibition at 10 uM incubated for 48 hrs by MTT assay relative to control; format: toxicity, cell-based; conditions: human
HCT-116 [3] = assay: Antiproliferative activity against human HCT-116 cells assessed as cell growth inhibition at 10 uM incubated for 48 hrs by MTT assay relative to control; format: functional
MIA PaCa-2 [4] = assay: Antiproliferative activity against human MIA PaCa-2 cells assessed as cell growth inhibition incubated for 48 hrs by MTT assay; format: functional
MIA PaCa-2 [5] = assay: Antiproliferative activity against human MIA PaCa-2 cells assessed as cell growth inhibition at 10 uM incubated for 48 hrs by MTT assay relative to control; format: functional
CDK9/cyclin T1 = CDK9/cyclin T1 (Homo sapiens, UniProt P50750); assay: Inhibition of CDK9/cyclin T1 (unknown origin) by ADP-Glo assay; format: protein-complex assay
HCT-116 [6] = assay: Antiproliferative activity against human HCT-116 cells assessed as cell growth inhibition incubated for 48 hrs by MTT assay; format: functional
[7] = molecular target: Cyclin-dependent kinase 7/ cyclin H (Homo sapiens, UniProt P50613); assay: Inhibition of CDK7/cyclin H (unknown origin) by ADP-Glo assay; format: protein-complex assay
[8] = molecular target: CDK9/Cyclin K (Homo sapiens) (UniProt P50750+O75909); assay: Inhibition of CDK9/cyclin K (unknown origin) at 10 uM by ADP-Glo assay relative to control; format: protein-complex assay
[9] = molecular target: Cyclin-dependent kinase 7/ cyclin H (Homo sapiens) (UniProt P51946+P50613); assay: Inhibition of CDK7/cyclin H (unknown origin) at 10 uM by ADP-Glo assay relative to control; format: protein-complex assay
[10] = AUC(0 to infinity) in BALB/c mouse at 30 mg/kg, po measured for 6 hrs by LC-MS/MS analysis; format: ADME, organism-based; conditions: in vivo
[11] = Metabolic stability in mouse liver microsomes assessed as compound remaining at 10 uM measured after 30 mins in presence of NADPH by HPLC analysis; format: ADME, Microsome; conditions: 0.5 h
[12] = C0 in BALB/c mouse at 2.5 mg/kg, iv measured for 6 hrs by LC-MS/MS analysis; format: ADME, organism-based; conditions: in vivo
MIA PaCa-2 [13] = assay: Induction of mitochondrial membrane potential loss in human MIA PaCa-2 cells incubated for 48 hrs by Rhodamine-123 dye based analysis; format: functional, cell-based
[14] = Clearance in BALB/c mouse at 30 mg/kg, po measured for 6 hrs by LC-MS/MS analysis; format: ADME, organism-based; conditions: in vivo
MIA PaCa-2 [15] = assay: Induction of apoptosis in human MIA PaCa-2 cells assessed as chromatin condensation incubated for 48 hrs by DAPI staining based analysis; format: functional, cell-based
[16] = Cmax in BALB/c mouse at 30 mg/kg, po measured for 6 hrs by LC-MS/MS analysis; format: ADME, organism-based; conditions: in vivo
[17] = AUC(0 to t) in BALB/c mouse at 30 mg/kg, po measured for 6 hrs by LC-MS/MS analysis; format: ADME, organism-based; conditions: in vivo
[18] = Clearance in BALB/c mouse at 2.5 mg/kg, iv measured for 6 hrs by LC-MS/MS analysis; format: ADME, organism-based; conditions: in vivo
[19] = Volume of distribution in BALB/c mouse at 30 mg/kg, po measured for 6 hrs by LC-MS/MS analysis; format: ADME, organism-based; conditions: in vivo
[20] = Half life in BALB/c mouse at 2.5 mg/kg, iv measured for 6 hrs by LC-MS/MS analysis; format: ADME, organism-based; conditions: in vivo
MIA PaCa-2 [21] = assay: Induction of intracellular ROS generation in human MIA PaCa-2 cells incubated for 48 hrs by DCFDA dye based analysis; format: functional, cell-based
[22] = AUC(0 to t) in BALB/c mouse at 2.5 mg/kg, iv measured for 6 hrs by LC-MS/MS analysis; format: ADME, organism-based; conditions: in vivo
[23] = Volume of distribution in BALB/c mouse at 2.5 mg/kg, iv measured for 6 hrs by LC-MS/MS analysis; format: ADME, organism-based; conditions: in vivo
MIA PaCa-2 [24] = assay: Induction of apoptosis in human MIA PaCa-2 cells assessed as apoptotic body formation incubated for 48 hrs by DAPI staining based analysis; format: functional, cell-based
[25] = Metabolic stability in human liver microsomes assessed as compound remaining at 10 uM measured after 30 mins in presence of NADPH by HPLC analysis; format: ADME, Microsome; conditions: 0.5 h
[26] = AUC(0 to infinity) in BALB/c mouse at 2.5 mg/kg, iv measured for 6 hrs by LC-MS/MS analysis; format: ADME, organism-based; conditions: in vivo
[27] = Half life in BALB/c mouse at 30 mg/kg, po measured for 6 hrs by LC-MS/MS analysis; format: ADME, organism-based; conditions: in vivo
[28] = Tmax in BALB/c mouse at 30 mg/kg, po measured for 6 hrs by LC-MS/MS analysis; format: ADME, organism-based; conditions: in vivo

Sequence of Cyclin-dependent kinase 7/ cyclin H (P51946 whole entry): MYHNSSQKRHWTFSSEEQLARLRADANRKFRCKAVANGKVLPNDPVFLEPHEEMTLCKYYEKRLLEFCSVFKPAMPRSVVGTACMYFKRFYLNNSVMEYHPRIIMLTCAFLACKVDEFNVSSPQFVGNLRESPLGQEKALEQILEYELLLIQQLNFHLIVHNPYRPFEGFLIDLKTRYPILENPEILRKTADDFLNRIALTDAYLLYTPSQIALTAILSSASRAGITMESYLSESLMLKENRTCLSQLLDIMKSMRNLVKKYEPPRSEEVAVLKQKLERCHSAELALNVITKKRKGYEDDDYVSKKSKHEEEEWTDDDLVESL
Sequence of Cyclin-dependent kinase 7/ cyclin H (P50613 whole entry): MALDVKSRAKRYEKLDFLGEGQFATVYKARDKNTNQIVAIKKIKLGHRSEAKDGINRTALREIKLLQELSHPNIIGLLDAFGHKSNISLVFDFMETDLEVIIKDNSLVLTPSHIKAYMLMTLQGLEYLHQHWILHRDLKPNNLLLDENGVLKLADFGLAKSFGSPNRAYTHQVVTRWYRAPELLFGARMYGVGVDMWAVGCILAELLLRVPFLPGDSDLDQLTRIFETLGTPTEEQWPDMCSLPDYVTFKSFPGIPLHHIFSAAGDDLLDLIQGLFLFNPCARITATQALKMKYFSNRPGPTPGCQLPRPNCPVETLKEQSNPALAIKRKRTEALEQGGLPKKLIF
Sequence of CDK9/cyclin T1 (O60563 whole entry): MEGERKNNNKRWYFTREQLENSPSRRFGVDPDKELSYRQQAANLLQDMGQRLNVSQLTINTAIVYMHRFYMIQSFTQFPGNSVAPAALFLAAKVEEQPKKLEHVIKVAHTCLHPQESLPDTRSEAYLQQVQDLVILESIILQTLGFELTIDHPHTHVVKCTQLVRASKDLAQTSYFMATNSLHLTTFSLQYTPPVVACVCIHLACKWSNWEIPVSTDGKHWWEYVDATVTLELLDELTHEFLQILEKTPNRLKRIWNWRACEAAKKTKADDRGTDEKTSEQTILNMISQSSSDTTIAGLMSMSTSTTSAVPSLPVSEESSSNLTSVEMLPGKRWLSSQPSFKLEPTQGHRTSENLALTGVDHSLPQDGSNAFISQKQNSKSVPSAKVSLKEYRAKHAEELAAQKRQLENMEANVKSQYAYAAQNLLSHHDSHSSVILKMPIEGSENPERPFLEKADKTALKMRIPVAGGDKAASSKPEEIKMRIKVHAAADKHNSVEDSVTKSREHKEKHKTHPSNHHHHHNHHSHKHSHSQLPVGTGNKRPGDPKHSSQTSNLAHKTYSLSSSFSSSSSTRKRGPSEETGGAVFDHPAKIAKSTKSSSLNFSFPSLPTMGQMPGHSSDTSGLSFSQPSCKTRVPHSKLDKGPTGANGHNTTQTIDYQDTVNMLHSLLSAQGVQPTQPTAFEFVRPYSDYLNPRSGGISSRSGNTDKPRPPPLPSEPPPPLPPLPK
Sequence of CDK9/cyclin T1 (P50750 whole entry): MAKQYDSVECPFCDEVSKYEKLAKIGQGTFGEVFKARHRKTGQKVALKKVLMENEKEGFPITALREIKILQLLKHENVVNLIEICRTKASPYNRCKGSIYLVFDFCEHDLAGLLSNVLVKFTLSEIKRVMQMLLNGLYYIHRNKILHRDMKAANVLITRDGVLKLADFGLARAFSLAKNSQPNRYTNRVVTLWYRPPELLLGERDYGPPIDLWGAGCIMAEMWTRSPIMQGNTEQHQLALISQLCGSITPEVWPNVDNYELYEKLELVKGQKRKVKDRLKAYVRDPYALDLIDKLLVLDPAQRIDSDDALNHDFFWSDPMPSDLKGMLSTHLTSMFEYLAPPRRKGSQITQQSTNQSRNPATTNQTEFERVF
Sequence of CDK9/Cyclin K (P50750 whole entry): as above
Sequence of CDK9/Cyclin K (O75909 whole entry, further chain): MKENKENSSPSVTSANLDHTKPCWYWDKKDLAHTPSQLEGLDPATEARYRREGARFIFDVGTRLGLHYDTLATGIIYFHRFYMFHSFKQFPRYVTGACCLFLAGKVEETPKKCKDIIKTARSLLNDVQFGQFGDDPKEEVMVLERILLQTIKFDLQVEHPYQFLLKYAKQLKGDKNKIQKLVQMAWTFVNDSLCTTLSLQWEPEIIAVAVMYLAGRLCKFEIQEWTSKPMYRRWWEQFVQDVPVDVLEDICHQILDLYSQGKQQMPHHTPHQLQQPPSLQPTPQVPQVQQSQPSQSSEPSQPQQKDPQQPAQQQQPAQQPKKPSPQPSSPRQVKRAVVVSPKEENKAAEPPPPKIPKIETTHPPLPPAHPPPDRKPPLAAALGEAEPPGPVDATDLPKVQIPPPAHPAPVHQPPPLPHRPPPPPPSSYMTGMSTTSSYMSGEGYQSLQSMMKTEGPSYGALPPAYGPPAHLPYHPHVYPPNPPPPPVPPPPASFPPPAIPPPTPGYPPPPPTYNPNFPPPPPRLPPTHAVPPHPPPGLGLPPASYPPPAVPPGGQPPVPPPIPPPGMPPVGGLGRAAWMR

Row | Structure (SMILES) | IC50 (CDK9/Cyclin K) | GI50 at 48 h [1] | inhibition at 48 h, 10 µM [2] | inhibition at 10 µM (HCT-116 [3]) | GI50 (MIA PaCa-2 [4]) | inhibition at 10 µM (MIA PaCa-2 [5]) | IC50 (CDK9/cyclin T1) | GI50 (HCT-116 [6]) | IC50 [7] | inhibition [8] | inhibition [9] | also measured
1 | C[N+]1([O-])CC[C@H](c2c(O)cc(O)c3c(=O)cc(/C=C/c4ccccc4F)oc23)[C@H](O)C1 (stereo not given in full) | 8.47 µM | > 100 µM | 18.8% | 18.2% | 5.58 µM | 31.8% | 0.676 µM | > 10 µM | > 10 µM | 58.9% | 15.9% | –
2 | C[N+]1([O-])CC[C@H](c2c(O)cc(O)c3c(=O)cc(/C=C/c4ccccc4Cl)oc23)[C@H](O)C1 (stereo not given in full) | 2.81 µM | 90.3 µM | 29.7% | 67% | 6.07 µM | 56.3% | 0.166 µM | 5.1 µM | 1.46 µM | 61.7% | 62.7% | AUC(0-inf) [10]: 525 ng·h/mL; Stability [11]: Stable; C0 at 6 h [12]: 5720 ng/mL; Activity (MIA PaCa-2 [13]): Dose-Dependent Effect; CL/F [14]: 953 mL/min/kg; Activity (MIA PaCa-2 [15]): Dose-Dependent Effect; Cmax [16]: 731 ng/mL; AUC(0-t) at 6 h [17]: 510 ng·h/mL; clearance [18]: 120 mL/min/kg; Vd [19]: 32.4 L/kg; half-life [20]: 17.4 min; Activity (MIA PaCa-2 [21]): Dose-Dependent Effect; AUC(0-t) at 6 h [22]: 341 ng·h/mL; Vd [23]: 3 L/kg; Activity (MIA PaCa-2 [24]): Dose-Dependent Effect; Stability [25]: Stable; AUC(0-inf) [26]: 346 ng·h/mL; half-life [27]: 102 min; Tmax [28]: 4.98 min
3 | C[N+]1([O-])CC[C@H](c2c(O)cc(O)c3c(=O)cc(/C=C/c4c(Cl)cccc4Cl)oc23)[C@H](O)C1 (stereo not given in full) | 3.44 µM | > 100 µM | 24.1% | 72.3% | 9.7 µM | 53.6% | 0.399 µM | 5.44 µM | 6.44 µM | 65.8% | 47.5% | –
4 | CC(=O)O[C@H]1C(=O)[C@@]2(C)[C@H]([C@H](OC(=O)c3ccccc3)[C@]3(O)C[C@H](OC(=O)[C@H](O)[C@@H](NC(=O)c4ccccc4)c4ccccc4)C(C)=C1C3(C)C)[C@]1(OC(C)=O)CO[C@@H]1C[C@@H]2O | – | – | – | – | – | – | – | – | – | – | – | Activity (MIA PaCa-2 [13]): Dose-Dependent Effect; Activity (MIA PaCa-2 [15]): Dose-Dependent Effect; Activity (MIA PaCa-2 [24]): Dose-Dependent Effect
5 | CN1CC[C@H](c2c(O)cc(O)c3c(=O)cc(/C=C/c4c(Cl)cccc4Cl)oc23)[C@H](O)C1 | 0.32 µM | > 100 µM | 20.6% | 49.5% | 1.94 µM | 82.5% | 0.003 µM | 9.32 µM | – | 83.6% | 81.6% | –
6 | C[N+]1([O-])CC[C@H](c2c(O)cc(O)c3c(=O)cc(/C=C/c4ccccc4)oc23)[C@H](O)C1 (stereo not given in full) | > 10 µM | > 100 µM | 8.2% | 20.5% | > 10 µM | 21.5% | 1.99 µM | > 10 µM | > 10 µM | 44.2% | 41.7% | –
7 | C[N+]1([O-])CC[C@H](c2c(O)cc(O)c3c(=O)cc(/C=C/c4cccc(Cl)c4)oc23)[C@H](O)C1 (stereo not given in full) | > 10 µM | > 100 µM | 9.2% | 27.4% | > 10 µM | 36.3% | 3.71 µM | > 10 µM | > 10 µM | 37.3% | 19.4% | –
8 | Cc1cc(=O)c2c(O)cc(O)c([C@H]3CC[N+](C)([O-])C[C@H]3O)c2o1 (stereo not given in full) | > 10 µM | > 100 µM | 14.3% | 34% | > 10 µM | 18.8% | 7.65 µM | > 10 µM | > 10 µM | 37.9% | 12.8% | –
9 | C[N+]1([O-])CC[C@H](c2c(O)cc(O)c3c(=O)cc(/C=C/c4ccc(Cl)cc4)oc23)[C@H](O)C1 (stereo not given in full) | > 10 µM | 46.3 µM | 9.1% | 39.3% | > 10 µM | 44.2% | 3.85 µM | > 10 µM | > 10 µM | 35.8% | 18.2% | –
10 | C[N+]1([O-])CC[C@H](c2c(O)cc(O)c3c(=O)cc(/C=C/c4ccccc4Br)oc23)[C@H](O)C1 (stereo not given in full) | 2.41 µM | 95.2 µM | 17.2% | 36.3% | 5.35 µM | 70.3% | 0.231 µM | 9.32 µM | 1.62 µM | 60.2% | 49.4% | –
